Laboratory results from patent US9193699B2, “Apoptosis inducing compounds” (INSTITUT NATIONAL DE LA SANTE ET DE LA RECHERCHE MEDICALE …, priority 2011, dated 2015).

Experiments:
Type in all cases: cell-based
[1] = tested on: Human breast tumor L226 cells; assay: Inhibition of tumor cell growth (alamar blue), L226; conditions: 120 h, calculated on the basis of cell growth inhibition, day 5, alamar blue
Method: (§1) All biological experiments (Examples 2 to 9) have been performed with recommended cell line specific culture medium. For SUM149 and L226, culture medium is supplemented with 10% Fetal Calf Serum. For HME-1 and MCF-10A, culture medium is supplemented with 5% Horse Serum.
(§2) Human breast tumor L226 cells (Inflammatory Breast Cancer (IBC) of ERB-B2 subtype) were plated in a 96 well plate at 3000 cells/100 μL at 37° C. in 5% CO2. Serial dilutions of drugs (compounds 1, 3 or 4) ranging from 20 μM to 300 nM were added at day 0 and day 3. The number of viable cells was determined in triplicate at day 5 by incubating 10 μL of the alamar blue staining solution for 2 hours at 37° C. (FIG. 3).
IC50 values of compounds 1-14 for the inhibition of SUM149 and L226 tumor cells growth were measured (according to the experimental procedure of Examples 2 and 3): […]

[2] = tested on: caspase-3 and caspase-7 in HME-1 cells; assay: Caspase 3/7 activation (Caspase-Glo 3/7) in HME-1 normal cells; conditions: Homo sapiens, HME1, R=RLU at 20 μM/RLU at 0 μM, 24 h, read-out: Caspase 3/7 activation R (RLU fold increase from untreated cells)
Method: (§3) Human normal mammary epithelial HME-1 cells were plated in a 96 well plate at 10000 cells/100 μL at 37° C. in 5% CO2. Serial dilutions of drugs (compounds 1, 3 or 4) ranging from 20 μM to 300 nM were added at day 0. Active caspase-3 and caspase-7 were measured in triplicate after 24 h treatment by incubating 50 μL of the Caspase-Glo 3/7 reagent for 60 min at 25° C. This reagent containing the proluminescent tetrapeptide sequence DEVD in a cell lysis buffer (Promega) (FIG. 8).
(§4) The calculated values R correspond to Relative Luminescence Units (RLU) fold increase from untreated cells (R=RLU at 20 μM/RLU at 0 μM).
(§5) Caspase 3/7 activation in MCF-10A and HME-1 normal cells was also measured.

[3] = tested on: Human breast tumor SUM149 cells; assay: Inhibition of tumor cell growth (alamar blue), SUM149; conditions: 120 h, calculated on the basis of cell growth inhibition, day 5, alamar blue, read-out: IC50 for the inhibition of SUM149 tumor cells growth
Method: as §1
as §2, with “SUM149” for “L226”, “basal” for “ERB-B2”, “Compounds” for “Serial dilutions of drugs (compounds”, “3, 4, 5, 6, 7, 8, 9, 10, 11, 12, 13, 14 at 10” for “3 or 4) ranging from 20”, “μM” for “μM to 300 nM”, “1).” for “3).”
as §2, with “SUM149” for “L226”, “cells” for “cells (Inflammatory Breast Cancer (IBC) of ERB-B2 subtype)”, “2).” for “3).”
IC50 values of compounds 1-14 for the inhibition of SUM149 and L226 tumor cells growth were measured (according to the experimental procedure of Examples 2 and 3):
Human breast tumor SUM149 cells were plated in a 96 well plate at 3000 cells/100 μL at 37° C. in 5% CO2 in recommended medium containing 10% FCS or in synthetic medium without FCS. Serial dilutions of drug (compound 4) ranging from 10 μM to 0.16 μM were added at day 0 and day 3. The number of viable cells was determined in triplicate at day 5 by incubating 10 μL of the alamar blue staining solution for 2 hours at 37° C. (FIG. 11). The […] in recommended medium containing 10% FCS was measured at 2 μM, while it was measured at 0.6 μM without FCS.

[4] = tested on: Human normal mammary epithelial HME-1 cells; assay: Effect on growth of normal cells (alamar blue), HME-1; conditions: HME1, calculated on the basis of cell growth inhibition
Method: as §1
as §2, with “normal mammary epithelial HME-1” for “breast tumor L226”, “cells” for “cells (Inflammatory Breast Cancer (IBC) of ERB-B2 subtype)”, “4).” for “3).”
(§6) IC50 values of compounds 1-14 for the inhibition of MCF-10A and HME-1 normal cells growth were also measured (according to the experimental procedure of Examples 4 and 5): […]

[5] = tested on: caspase-3 and caspase-7 in MCF-10A cells; assay: Caspase 3/7 activation (Caspase-Glo 3/7) in MCF-10A normal cells; conditions: Homo sapiens, R=RLU at 20 μM/RLU at 0 μM, 24 h, read-out: Caspase 3/7 activation R (RLU fold increase from untreated cells)
Method: as §3, with “MCF-10A” for “HME-1”, “9).” for “8).”
as §4, §5

[6] = tested on: caspase-3 and caspase-7 in SUM149 cells; assay: Caspase 3/7 activation (Caspase-Glo 3/7) in SUM149 tumor cells; conditions: Homo sapiens, R=RLU at 20 μM/RLU at 0 μM, 24 h, read-out: Caspase 3/7 activation R (RLU fold increase from untreated cells)
Method: as §3, with “breast tumor SUM149” for “normal mammary epithelial HME-1”, “6).” for “8).”
(§7) Caspase 3/7 activation in SUM149 and L226 tumor cells was measured.
as §4

[7] = tested on: Human normal mammary epithelial MCF-10A cells; assay: Effect on growth of normal cells (alamar blue), MCF-10A; conditions: calculated on the basis of cell growth inhibition
Method: as §1
as §2, with “normal mammary epithelial MCF-10A” for “breast tumor L226”, “cells” for “cells (Inflammatory Breast Cancer (IBC) of ERB-B2 subtype)”, “5).” for “3).”
as §6

[8] = tested on: caspase-3 and caspase-7 in L226 cells; assay: Caspase 3/7 activation (Caspase-Glo 3/7) in L226 tumor cells; conditions: Homo sapiens, R=RLU at 20 μM/RLU at 0 μM, 24 h, read-out: Caspase 3/7 activation R (RLU fold increase from untreated cells)
Method: as §3, with “breast tumor L226” for “normal mammary epithelial HME-1”, “7).” for “8).”
as §7, §4

Cancer stem cells (CSCs) = assay: Aldefluor assay of cancer stem cells (ALDH+ cells), FACS; conditions: FIG. 12B
Method: Cancer stem cells (CSCs) are thought to contribute to tumor initiation, maintenance, resistance to therapy, and metastasis progression. Treatment with drugs enrich in resistant CSCs. In vitro, breast CSCs express high level of aldehyde dehydrogenase-1 (ALDH1), which can be detected by using a commercial assay (CSCs are “Aldefluor” positive). Briefly, cells were incubated in Aldefluor assay buffer containing ALDH substrate (BAAA (BODIPY®—aminoacetaldehyde), 1 μmol/L per 1×10^6 cells). Negative control was done in the presence of diethylaminobenzaldehyde (DEAB), a specific ALDH inhibitor. Cells were then incubated for 40 min at 37° C. Cells were analyzed with the LSRII flow cytometer (Becton-Dickinson). PI (Propidium Iodide) exclusion was used to gate viable cells.

Row | IC50 [1] | IC50 [3] | SMILES | fold induction at 20 µM [2] | IC50 [4] | fold induction at 20 µM [5] | fold induction at 20 µM [6] | IC50 [7] | fold induction at 20 µM [8] | aldefluor ratio (percent ALDH+ cells treated vs DMSO) (Cancer stem cells (CSCs))
1 | > 20 µM | 20000 nM | CC1(C)SCCN(S(=O)(=O)c2ccccc2)[C@H]1C(=O)NO [Compound 1, (3S)—N-hydroxy-4-(benzenesulfonyl)-2,2-dimethyl-3-thiomorpholine carboxamide] | 1 | > 20 µM | 1 | 1 | > 20 µM | 1 | 
2 | 20 µM | 2500 nM | CC1(C)SCCN(S(=O)(=O)c2ccc(CBr)cc2)[C@H]1C(=O)NO [Compound 5, (3S)—N-hydroxy-4-[(4-bromomethylphenyl)sulfonyl]-2,2-dimethyl-3-thiomorpholine carboxamide] | 1.1 | > 20 µM | 1 | 5.5 | > 20 µM | 3.2 | 
3 | 5 µM | 2500 nM | CC1(C)SCCN(S(=O)(=O)c2ccc(C(F)(F)F)cc2)[C@H]1C(=O)NO [Compound 6, (3S)—N-hydroxy-4-[(4-trifluoromethylphenyl)sulfonyl]-2,2-dimethyl-3-thiomorpholine carboxamide] | 0.9 | > 20 µM | 1 | 5.9 | > 20 µM | 2.8 | 
4 |  | 20000 nM | CC1(C)SCCN(S(=O)(=O)c2ccc(F)cc2)[C@H]1C(=O)NO [Compound 7, (3S)—N-hydroxy-4-[(4-fluorophenyl)sulfonyl]-2,2-dimethyl-3-thiomorpholine carboxamide] |  |  |  |  |  |  | 
5 |  | 10000 nM | CC1(C)SCCN(S(=O)(=O)CC(c2ccccc2)c2ccccc2)[C@H]1C(=O)NO [Compound 9] |  |  |  |  |  |  | 
6 | 3.5 µM | 2500 nM | CCCCCCCCCCCCc1ccc(S(=O)(=O)N2CCSC(C)(C)C2C(=O)NO)cc1 [Compound 10, (3S)—N-hydroxy-4-[(4-dodecyl)phenylsulfonyl]-2,2-di methyl-3-thiomorpholine carboxamide] | 0.8 | > 20 µM | 1.1 | 5.5 | 20 µM | 8.9 | 
7 | 2.5 µM | 2500 nM | Cc1cc(C)c(S(=O)(=O)N2CCSC(C)(C)[C@@H]2C(=O)NO)c(C)c1 [Compound 11, (3S)—N-hydroxy-4-[(2,4,6-trimethylphenyl)sulfonyl]-2,2-dimethyl-3-thiomorpholine carboxamide] |  | > 20 µM |  | 6.4 | 20 µM | 8.7 | 
8 | 2.5 µM | 2500 nM | CCCc1ccc(S(=O)(=O)N2CCSC(C)(C)[C@@H]2C(=O)NO)cc1 [Compound 13, (3S)—N-hydroxy-4-[(4-propylphenyl)sulfonyl]-2,2-dimethyl-3-thiomorpholine carboxamide] | 1.2 | > 20 µM | 1.1 | 5.4 | > 20 µM | 5.8 | 
9 |  | 5000 nM | Cc1cc(C)cc(S(=O)(=O)N2CCSC(C)(C)[C@@H]2C(=O)NO)c1 [Compound 14, (3S)—N-hydroxy-4-[(3,5-dimethylphenyl)sulfonyl]-2,2-dimethyl-3-thiomorpholine carboxamide] | 1.1 |  | 1.1 |  |  |  | 
10 |  |  | COc1cccc2c1C(=O)c1c(O)c3c(c(O)c1C2=O)C[C@@](O)(C(=O)CO)C[C@@H]3O[C@H]1C[C@H](N)[C@H](O)[C@H](C)O1 [doxorubicin, reference compound] |  |  |  |  |  |  | increases it
